The text below walks through data of patent US20170049842A1, “FOOD ADDITIVE FOR PRODUCING FOOD FOR PREVENTING CRANIAL NERVE DISEASE AND/OR IMPROVING BRAIN FUNCTION” (FUJI OIL HOLDINGS INC., priority 2014, published 2017).

In general, Papp A→B refers to the apparent permeability from the apical to the basolateral side of a cell layer. Higher therefore signals fast passage.

Series [1] can be described thus: Permeability coefficient (Papp) across Caco-2 cell monolayers in Ussing Chamber. The following applies: Caco-2; for Papp A→B at 60 min, 10 mM: human. On the technique in general: Passage across Caco-2 layers is used to estimate intestinal permeability.
Experimental: (§1) The measurement of permeability coefficient, which was an index of absorbability in the intestinal tract, of ARPs was performed as follows.
(§2) Caco-2 cells were seeded in Cell culture insert at 4.0×10^5 cells/mL, and cultured for 3 days in an intestinal epithelial differentiation promoting medium. Caco-2 cell monolayers were cut and set to Ussing Chamber. Hanks' Balanced Salt Solution (HBSS) (apical membrane side: pH 6.0, basolateral membrane side: pH 7.4) was added in each Chamber. After 15 minutes preliminary heat retention (37° C., 95% O2/5% CO2 mixture gas), each ARPs aqueous solution (10 mM) was added to apical membrane side. Samples were recovered from the basolateral membrane side every 15 minutes (total 60 minutes). The recovered sample was subjected to ESI-TOF-MS (Electro Spray Ionization-Time of Flight-Mass Spectrometry) analysis to determine permeated peptide amount. Permeability coefficient (Papp) was calculated according to the following formula.
(§3) C0: concentration of added peptide (mmol/L)
(§4) dC/dt: Permeated amount of peptide per time (mmol/L·sec)
(§5) Concentration of peptide, which transitioned to the basolateral membrane side in each time, was calculated based on the area from reference standard. In addition, it was confirmed that they were not degraded to amino acids.
(§6) Permeated peptide amount per time was calculated and permeability coefficient (Papp) was calculated according to the above formula.
The test system of series [2] is Caco-2 cell monolayers. The series is described as above. The conditions noted are these: compared with the other ARPs.
Experimental: as §1, §2, §3, §4, §5, §6
In series [3] the test system is Caco-2 cell monolayers.
Experimental: as §1, §2, §3, §4, §5, §6
Another series is described as follows: in vitro. The conditions noted are these: human, Caco-2.

Where two headings read alike, the source gives them in different places. Peptide text beside a SMILES is read from it.

Experimental for in vitro: as §1, §2, §3, §4, §5, §6

Turning to `CC[C@H](C)[C@H](N)C(=O)N[C@@H](Cc1ccc(O)cc1)C(=O)O` [H, Ile-Tyr] (H-Ile-Tyr-OH; N-terminus and C-terminus assumed), the Papp A→B in series [1] amounted to 2.92 ± 0.265 ×10⁻⁶ cm/s. Besides, the “permeability coefficient / permeation efficiency in mesenteric model cell, in words” value in the series on Caco-2 cell monolayers [2] is on record as “relatively high permeation efficiency”. For the compound `N=C(N)NCCC[C@H](NC(=O)[C@@H](N)Cc1ccc(O)cc1)C(=O)O` [Peptide C, Tyr-Arg], the Papp A→B at 60 min, 10 mM in series [1] amounted to 0.05 ± 0.011 ×10⁻⁶ cm/s. `NC(=O)C[C@H](NC(=O)[C@@H](N)Cc1ccc(O)cc1)C(=O)O` [F, Tyr-Asn] (H-Tyr-Asn-OH; N-terminus and C-terminus assumed) had a Papp A→B in series [1] of 0.044 ± 0.009 ×10⁻⁶ cm/s. With `CC(C)C[C@H](NC(=O)[C@@H](N)Cc1ccc(O)cc1)C(=O)O` [B, Tyr-Leu] (H-Tyr-Leu-OH; N-terminus and C-terminus assumed), in the series with Caco-2 cell monolayers [3], the “permeability coefficient / permeation efficiency in mesenteric model cell, in words” value is “relatively higher permeability coefficient than the other ARPs”. In the series “in vitro”, this compound yielded a Papp A→B at 60 min, 10 mM of 0.596 ± 0.198 ×10⁻⁶ cm/s. In series [1], `N[C@@H](Cc1ccc(O)cc1)C(=O)N1CCC[C@H]1C(=O)O` [E, Tyr-Pro] (H-Tyr-Pro-OH; N-terminus and C-terminus assumed) yielded a Papp A→B of 0.885 ± 0.215 ×10⁻⁶ cm/s. Besides, the “permeability coefficient / permeation efficiency in mesenteric model cell, in words” value with Caco-2 cell monolayers [2] is listed as “relatively high permeation efficiency”. In the same order, the values of `N[C@@H](Cc1ccc(O)cc1)C(=O)N[C@@H](CO)C(=O)O` [D, Tyr-Ser] (H-Tyr-Ser-OH; N-terminus and C-terminus assumed) are 0.248 ± 0.088 ×10⁻⁶ cm/s and “relatively higher permeability coefficient than the other ARPs”. For `N[C@@H](Cc1ccccc1)C(=O)N[C@@H](Cc1ccc(O)cc1)C(=O)O` [G, Phe-Tyr] (H-Phe-Tyr-OH; N-terminus and C-terminus assumed), the Papp A→B at 60 min, 10 mM in series [1] turned out to be 0.006 ± 0.0001 ×10⁻⁶ cm/s. For `N[C@@H](CO)C(=O)N[C@@H](Cc1ccc(O)cc1)C(=O)O` [A, Ser-Tyr] (H-Ser-Tyr-OH; N-terminus and C-terminus assumed), the Papp A→B in series [1] came out at 0.72 ± 0.272 ×10⁻⁶ cm/s. Moreover, the “permeability coefficient / permeation efficiency in mesenteric model cell, in words” value with Caco-2 cell monolayers [2] is listed as “relatively high permeation efficiency”.
